Test results taken from patent US7964624B1, “Inhibitors of serine proteases” (priority 2005, dated 2011).

Molecular target: T1, full-length hepatitis C viral protein NS3•4A (Hepatitis C virus genotype 1a, UniProt P27958)
T1 construct: hexa-histidine (N); made in house; host or cells: Sf9 insect cells (baculovirus, pVL1392)
Test: biochemical
Set-up: species or system HCV sub-type strain 1a
Conditions: Enzyme Assay 2 (HCV NS3 Peptide Cleavage Assay) activity, apparent Ki class

Row | Compound | Ki [nM]
1 | CCC[C@H](NC(=O)[C@@H]1C[C@]2(CC(c3cccc(Cl)c3)=NO2)CN1C(=O)[C@@H](NC(=O)OC(C)(C)C)C(C)(C)C)C(=O)C(=O)NC1CC1 [Compound 90] | < 100
2 | CCC[C@H](NC(=O)[C@@H]1C[C@]2(CC(c3ccc(OCC)c(Cl)c3)=NO2)CN1C(=O)[C@@H](NC(=O)CC1CCCCC1)C(C)(C)C)C(=O)C(=O)NC1CC1 [Compound 556] | < 100
3 | CCC[C@H](NC(=O)[C@@H]1C[C@@]2(CC(c3cccc4cccnc34)=NO2)CN1C(=O)[C@@H](NC(=O)CC1CCCCC1)C(C)(C)C)C(=O)C(=O)NC1CC1 [Compound 31] | 100 to 500
4 | CCC[C@H](NC(=O)[C@@H]1C[C@]2(CC(c3cc(Cl)cc(OC)c3Cl)=NO2)CN1C(=O)[C@@H](NC(=O)CC1CCCCC1)C(C)(C)C)C(=O)C(=O)NC1CC1 [Compound 38] | 100 to 500
5 | CCC[C@H](NC(=O)[C@@H]1C[C@]2(CC(c3cc(Cl)c(OC)cc3C)=NO2)CN1C(=O)[C@@H](NC(=O)OC1CCCC1)C(C)(C)C)C(=O)C(N)=O [Compound 651] | 100 to 500
6 | CCC[C@H](NC(=O)[C@@H]1C[C@]2(CC(c3ccc(NC)c(Cl)c3)=NO2)CN1C(=O)[C@@H](NC(=O)CC1CCCCC1)C(C)(C)C)C(=O)C(=O)NC1CC1 [Compound 771] | < 100
7 | CC(C)(C)[C@H](NC(=O)CC1CCCCCC1)C(=O)N1C[C@@]2(CC(c3cccc(Cl)c3)=NO2)C[C@H]1C(=O)N[C@@H](CC1CC1)C(=O)C(N)=O [Compound 219] | < 100
8 | CCC[C@H](NC(=O)[C@@H]1C[C@]2(CC(c3cc(C)c(OC)c(Cl)c3)=NO2)CN1C(=O)[C@@H](NC(=O)CC1CCCCC1)C(C)(C)C)C(=O)C(N)=O [Compound 640] | < 100
9 | CNC(=O)C(=O)[C@H](CC1CC1)NC(=O)C1C[C@]2(CC(c3cccc(Cl)c3)=NO2)CN1C(=O)[C@@H](NC(=O)C1CCC1)C(C)(C)C (some centres unmarked) [Compound 749] | < 100
10 | CCC[C@H](NC(=O)[C@@H]1C[C@]2(CC(c3cccc(Cl)c3)=NO2)CN1C(=O)[C@@H](NC(=O)[C@H]1C[C@@H]1c1ccccc1)C(C)(C)C)C(=O)C(=O)NC1CC1 [Compound 697] | < 100
11 | CCC[C@H](NC(=O)[C@@H]1C[C@]2(CC(c3cc(Cl)ccc3OC)=NO2)CN1C(=O)[C@@H](NC(=O)CC1CCCCCC1)C(C)(C)C)C(=O)C(N)=O [Compound 637] | < 100
12 | CCC[C@H](NC(=O)[C@@H]1C[C@]2(CC(c3cc(Cl)c(OC)cc3C)=NO2)CN1C(=O)[C@@H](NC(=O)CC1CCCCCC1)C(C)(C)C)C(=O)C(N)=O [Compound 622] | 100 to 500
13 | CCC[C@H](NC(=O)[C@@H]1C[C@]2(CC(c3cc(C)c(OCC)c(Cl)c3)=NO2)CN1C(=O)[C@@H](NC(=O)OC1CCCC1)C(C)(C)C)C(=O)C(=O)NC [Compound 785] | < 100
14 | CCC[C@H](NC(=O)[C@@H]1C[C@]2(CC(c3cc(Cl)c(OC)cc3OC)=NO2)CN1C(=O)[C@@H](NC(=O)CC1CCCCCC1)C(C)(C)C)C(=O)C(=O)NC1CC1 [Compound 129] | < 100
15 | CNC(=O)C(=O)[C@H](CC1CC1)NC(=O)[C@@H]1C[C@]2(CC(c3cc(C)c(OC)c(C)c3)=NO2)CN1C(=O)[C@@H](NC(=O)CC1CCCCC1)C(C)(C)C [Compound 725] | < 100
16 | CCC[C@H](NC(=O)[C@@H]1C[C@]2(CC(c3cc(Cl)ccc3OC)=NO2)CN1C(=O)[C@@H](NC(=O)CC1CCCCC1)C(C)(C)C)C(=O)C(=O)NC [Compound 632] | < 100

Row | Compound | Ki [nM]
17 | CCC[C@H](NC(=O)[C@@H]1C[C@]2(CC(c3cccc(Cl)c3)=NO2)CN1C(=O)Cc1ccc(OC(F)(F)F)cc1)C(=O)C(=O)NC1CC1 [Compound 380] | > 500
18 | CCC[C@H](NC(=O)[C@@H]1C[C@]2(CC(c3cc(Cl)nc4ccccc34)=NO2)CN1C(=O)[C@@H](NC(=O)CC1CCCCC1)C(C)(C)C)C(=O)C(=O)NC1CC1 [Compound 638] | < 100
19 | CCC[C@H](NC(=O)[C@@H]1C[C@]2(CC(c3cc(Cl)cc(OC)c3)=NO2)CN1C(=O)[C@@H](NC(=O)CC1CCCCC1)C(C)(C)C)C(=O)C(=O)NC1CC1 [Compound 250] | < 100
20 | CC(C)(C)[C@H](NC(=O)[C@@H]1C[C@H]1c1ccccc1)C(=O)N1C[C@@]2(CC(c3cccc(Cl)c3)=NO2)C[C@H]1C(=O)N[C@@H](CC1CC1)C(=O)C(N)=O [Compound 485] | < 100
21 | COc1c(C)cc(C2=NO[C@]3(C2)C[C@@H](C(=O)NC(CC2CC2)C(=O)C(N)=O)N(C(=O)[C@@H](NC(=O)OC2CCCC2)C(C)(C)C)C3)cc1C (some centres unmarked) [Compound 769] | 100 to 500
22 | CCC[C@H](NC(=O)[C@@H]1C[C@]2(CC(c3cccc(Cl)c3)=NO2)CN1C(=O)[C@@H](NC(=O)CC1CC2CCC1C2)C1(OC)CC1)C(=O)C(=O)NC1CC1 (some centres unmarked) [Compound 346] | < 100
23 | CNC(=O)C(=O)[C@H](CC1CC1)NC(=O)[C@@H]1C[C@]2(CC(c3cc(C)c(OC)c(C)c3)=NO2)CN1C(=O)[C@@H](NC(=O)CC1CCCCC1)C(C)(C)OC [Compound 788] | < 100
24 | CNC(=O)C(=O)[C@H](CC1CC1)NC(=O)[C@@H]1C[C@]2(CC(c3cc(Cl)cc4c3OCOC4)=NO2)CN1C(=O)[C@@H](NC(=O)CC1CCCCC1)C(C)(C)C [Compound 677] | < 100
25 | CCC[C@H](NC(=O)[C@@H]1C[C@]2(CC(c3cc(Cl)c(OC)cc3OC)=NO2)CN1C(=O)[C@@H](NC(=O)OC(C)(C)C)C(C)(C)C)C(=O)C(=O)NC1CC1 [Compound 131] | < 100
26 | CCC[C@H](NC(=O)[C@@H]1C[C@]2(CC(c3cc(Cl)ccn3)=NO2)CN1C(=O)[C@@H](NC(=O)OC1CCCC1)C(C)(C)C)C(=O)C(=O)NC1CC1 [Compound 667] | < 100
27 | CCC[C@H](NC(=O)[C@@H]1C[C@]2(CC(c3cccc4cccnc34)=NO2)CN1C(=O)[C@@H](NC(=O)CC1CCCCCC1)C(C)(C)C)C(=O)C(=O)NC1CC1 [Compound 595] | < 100
28 | CCC[C@H](NC(=O)[C@@H]1C[C@]2(CC(c3cc(C)c(OCC4CC4)c(C)c3)=NO2)CN1C(=O)[C@@H](NC(=O)CC1CCCCC1)C(C)(C)C)C(=O)C(=O)NC1CC1 [Compound 406] | < 100
29 | CCC[C@H](NC(=O)[C@@H]1C[C@]2(CC(c3cc(Cl)c(OC)cc3OC)=NO2)CN1C(=O)[C@@H](NC(=O)CC1CC2CCC1C2)C(C)(C)C)C(=O)C(=O)NC1CC1 (some centres unmarked) [Compound 446] | < 100
30 | CCC[C@H](NC(=O)[C@@H]1C[C@]2(CC(c3cc(Cl)c4c(c3)CCCN4C)=NO2)CN1C(=O)[C@@H](NC(=O)OC(C)(C)C)C(C)(C)C)C(=O)C(=O)NC1CC1 [Compound 601] | < 100
31 | CCC[C@H](NC(=O)[C@@H]1C[C@]2(CC(c3cnc(OC)nc3OC)=NO2)CN1C(=O)[C@@H](NC(=O)OC1CCCC1)C(C)(C)C)C(=O)C(=O)NC1CC1 [Compound 678] | 100 to 500
32 | COc1ccc(Cl)cc1C1=NO[C@]2(C1)C[C@@H](C(=O)N[C@@H](CC1CC1)C(=O)C(N)=O)N(C(=O)[C@@H](NC(=O)CC1CCCCC1)C(C)(C)C)C2 [Compound 633] | < 100

Same assay, conditions: Enzyme Assay 2, HCV NS3 Peptide Cleavage Assay, apparent Ki

Row | Compound | Ki [nM]
33 | CCC[C@H](NC(=O)[C@@H]1C[C@]2(CC(c3cc(C)c(OCC)c(Cl)c3)=NO2)CN1C(=O)[C@@H](NC(=O)[C@@H]1C[C@H]1c1ccccc1)C(C)(C)C)C(=O)C(=O)NC1CC1 [Compound 915] | < 100
34 | CCNC(=O)C(=O)[C@H](CC1CC1)NC(=O)[C@@H]1C[C@]2(CC(c3cccc(Cl)c3)=NO2)CN1C(=O)[C@@H](NC(=O)CC1CCCCC1)C(C)(C)C [Compound 836] | < 100
35 | CCC[C@H](NC(=O)[C@@H]1C[C@]2(CC(c3cccc(Cl)c3)=NO2)CN1C(=O)[C@@H](NC(=O)[C@H]1C[C@@H]1C1CCCCC1)C(C)(C)C)C(=O)C(=O)NC [Compound 928] | 100 to 500
36 | [2H][C@@](CCC)(NC(=O)[C@@H]1C[C@]2(CC(c3cc(C)c(OC)c(C)c3)=NO2)CN1C(=O)[C@@H](NC(=O)CC1CCCCC1)C(C)(C)C)C(=O)C(=O)NC1CC1 [Compound 967] | < 100
37 | CCC[C@H](NC(=O)[C@@H]1C[C@]2(CC(N3Cc4ccccc4C3)=NO2)CN1C(=O)[C@@H](NC(=O)OC1CCCC1)C(C)(C)C)C(=O)C(=O)NC1CC1 [Compound 964] | 100 to 500
38 | CCC[C@H](NC(=O)[C@@H]1C[C@]2(CC(c3cc(C)c(OCC)c(C)c3)=NO2)CN1C(=O)[C@@H](NC(=O)[C@@H]1C[C@H]1C(C)C)C(C)(C)C)C(=O)C(=O)NC1CC1 [Compound 983] | < 100
39 | CNC(=O)C(=O)[C@H](CC1CC1)NC(=O)[C@@H]1C[C@]2(CC(c3cccc(Cl)c3)=NO2)CN1C(=O)[C@@H](NC(=O)[C@H]1CC1c1ccccc1)C(C)(C)OC (some centres unmarked) [Compound 959] | < 100
40 | CNC(=O)C(=O)[C@H](CC1CC1)NC(=O)[C@@H]1C[C@]2(CC(c3cccc(Cl)c3)=NO2)CN1C(=O)[C@@H](NC(=O)[C@@H]1C[C@@H]1c1ccccn1)C(C)(C)C [Compound 886] | < 100
41 | CCC[C@H](NC(=O)[C@@H]1C[C@]2(CC(c3cccc(Cl)c3)=NO2)CN1C(=O)[C@@H](NC(=O)[C@H]1C[C@@H]1C1CCCC1)C(C)(C)C)C(=O)C(=O)NC1CC1 [Compound 953] | < 100
42 | CNC(=O)C(=O)[C@H](CC1CC1)NC(=O)[C@@H]1C[C@]2(CC(c3cccc(Cl)c3)=NO2)CN1C(=O)[C@@H](NC(=O)[C@@H]1CC12CCOCC2)C(C)(C)C [Compound 927] | < 100
43 | CCC[C@H](NC(=O)[C@@H]1C[C@]2(CC(c3cccc(Cl)c3)=NO2)CN1C(=O)[C@@H](NC(=O)C1(c2ccccc2)CC1)C(C)(C)C)C(=O)C(=O)NC1CC1 [Compound 961] | > 500
44 | CCC[C@H](NC(=O)[C@@H]1C[C@]2(CC(c3cc(C)c(OCC)c(C)c3)=NO2)CN1C(=O)[C@@H](NC(=O)CC1CCCCC1)C(C)(C)OC)C(=O)C(=O)NC1CC1 [Compound 956] | < 100
45 | CNC(=O)C(=O)[C@H](CC1CC1)NC(=O)[C@@H]1C[C@]2(CC(c3cccc4cccnc34)=NO2)CN1C(=O)[C@@H](NC(=O)[C@H]1C[C@@H]1c1ccccc1)C(C)(C)C [Compound 807] | 100 to 500
46 | COc1c(C)cc(C2=NO[C@]3(C2)C[C@@H](C(=O)N[C@@H](CC2CC2)C(=O)C(N)=O)N(C(=O)[C@@H](NC(=O)[C@@H]2C[C@H]2c2ccccc2)C(C)(C)C)C3)cc1Cl [Compound 811] | < 100
47 | CCC[C@H](NC(=O)[C@@H]1C[C@]2(CC(c3cc(C)c(OCC)c(C)c3)=NO2)CN1C(=O)[C@@H](NC(=O)[C@H]1C[C@@H]1c1ccc(F)cc1)C(C)(C)C)C(=O)C(=O)NC1CC1 [Compound 996] | < 100
